Laboratory results published in patent US20130287721A1, “METHOD FOR COUNTERACTING AMMONIA MALODOR” (Firmenich SA, priority 2010, published 2013).

Test system: ammonia lateralization threshold
Assay: Panel evaluation of the lateralization threshold (LT) of ammonia alone and in combination with a PRM
Type: in vivo, panellists
Parameters: LT of ammonia Panellist 1 Cond II / LT of ammonia Panellist 2 Cond II / LT of ammonia Panellist 3 Cond II: unit not given here
Settings: for LT of ammonia Panellist 1 Cond II / LT of ammonia Panellist 2 Cond II / LT of ammonia Panellist 3 Cond II / LT of ammonia Panellist 1 %Δ / LT of ammonia Panellist 2 %Δ / LT of ammonia Panellist 3 %Δ: Table 4; for LT of ammonia Panellist 1 Cond II / LT of ammonia Panellist 2 Cond II / LT of ammonia Panellist 3 Cond II: ammonia stimulus combined with PRM stimulus
Method: An ammonia stimulus test range was prepared. To ensure a stable level of ammonia in each stimulus, the ammonia headspace was stabilized by combining appropriate concentrations of NH4Cl, NaOH and H2O instead of simply adding ammonia directly to a solvent. Different concentrations of ammonia were used to create a stimulus test range by utilizing the appropriate amount of each compound (see Table 1).
A stimulus was also prepared for each PRM which was intended to be combined with ammonia stimuli. As the PRMs differed in their potency and to ensure that each PRM stimulus had approximately the same potency, an abbreviated dose response curve was constructed for each PRM by having four panellists evaluate the intensity of five concentration levels of the PRM dissolved in propylene glycol in duplicate. Assessments were made relative to the reference of 170 ppm allyl heptanoate in propylene glycol, which intensity was set to 0. Based upon the average scores, a rough intensity match was made for each PRM utilizing one of the following criteria. If one of the tested concentration levels averaged at or near zero, this concentration level was selected. If the rating created any sort of reasonable curve, the equation of the curve was determined and solved for 0 to arrive at the PRM assessment level. If multiple concentration levels were equally distant form the match level, then the standard deviation across individuals was considered, as were the individual responses. In general, the PRM level was selected to be on average close to 0 with low variability, with two panellists saying the level was a bit too high and the other two panellists saying the level was a bit too low. The PRMs for which a stimulus was prepared are listed in Table 2 below, together with the concentration of the PRM in the stimulus.
Volunteers were screened for their ability to lateralize ammonia stimuli. For the screening, the experimenter measured the participant's lateralization threshold for ammonia using a two-alternative forced choice modified staircase procedure employing a four-in, two-down, one-up rule with a five reversal criterion, as described below, On each trial volunteers were presented with a pair of glass bottles with clean, custom-made nose pieces. One bottle contained ammonia at a particular level selected from Table 1 and the other bottle contained water only. Each bottle was applied to one nostril using the nose piece. The volunteers were asked to identify which bottle in each pair contained ammonia.
If the ammonia stimulus was correctly identified in four consecutive trials, the concentration was decreased by one level of Table 1 on the next trial. If an incorrect answer was provided, the concentration was increased by one level of Table 1. Location (left or right nostril) of the stimulus was randomized over presentations. Testing continued until one of the following occurred: • 1) Five reversals (correct decision followed by an incorrect decision or vice versa) were achieved; • 2) The volunteer gave a correct response twice in a row at the lowest level of Table 1; or • 3) The volunteer gave an incorrect response at the highest level of Table 1.
In the first circumstance, threshold values were then calculated by averaging the last four reversals. In the second circumstance, the LT was the lowest level. In the third circumstance, the LT could not be calculated. Volunteers were considered qualified to participate in the panel evaluation if their LT could be calculated (Circumstance 1).
The LT of ammonia, both alone and in combination with diverse PRM, was determined. A repeated-measures design was used, such that the LT with and without the addition of a PRM were both measured at the same time in one person by utilizing interwoven stimuli presentations. The LT for each PRM was measured by two to three panellists, the third panellists being included if the results of the first to panellists disagreed. […]

[1] = Table 3, ammonia stimulus combined with PRM stimulus (concentration of Table 2 in propylene glycol)
[2] = Table 3, change of ammonia LT, Cond II (with PRM) vs Cond I (ammonia alone)
[3] = change of ammonia LT, Cond II (with PRM) vs Cond I (ammonia alone)

Row | Substance | Ammonia LT Panellist 1 Cond II [1] | Ammonia LT Panellist 2 Cond II [1] | Ammonia LT Panellist 3 Cond II [1] | Ammonia LT Panellist 1 % Δ [2] | Ammonia LT Panellist 2 % Δ [2] | Ammonia LT Panellist 3 % Δ [2] | LT of ammonia Panellist 1 Cond II | LT of ammonia Panellist 2 Cond II | LT of ammonia Panellist 3 Cond II | LT of ammonia Panellist 1 %Δ [3] | LT of ammonia Panellist 2 %Δ [3] | LT of ammonia Panellist 3 %Δ [3]
1 | Cedrenol | 2.3 ppm | 60 ppm | 2.3 ppm | −68% | 162% | −96% | – | – | – | – | – | –
2 | Mixture of 3-(4-ethylphenyl)-2,2-dimethylpropanal and 3(2-ethylphenyl)-2,2-dimethylpropanal [Floralozone] | – | – | – | – | – | – | 2.0 | 6.3 | 3.5 | 895% | 214% | 77%
3 | Mixture of (E)-4-(2,2,C-3,T-6-tetramethyl-R-1-cyclohexyl)-3-buten-2-one and (E)-4-(2,2,T-3,T-6-tetramethyl-R-1-cyclohexyl)-3-buten-2-one [Myrrhone ®] | – | – | – | – | – | – | 11.1 | 3.5 | 3.5 | 77% | 212% | 77%
